The record followed here is patent US8034940B2, “Modulators of glucocorticoid receptor, AP-1, and/or NF-κB activity and use thereof” (Bristol-Myers Squibb Company, priority 2006, dated 2011).

The experiment deals with AP-1 induced transcriptional activity. Description: Cellular Transrepressional Assay (AP-1 luciferase reporter, PMA-activated A549 cells). Particulars: for Emax: A549, 7 h, read-out: AP-1 Max % inh (Cellular Transrepression Assay); for Emax / AP-1 Max % inh (Cellular Transrepression Assay): maximum inhibition. Format: cell-based. Here is the method:
Cellular Transrepressional Assay
To measure the ability of test molecules to inhibit AP-1 induced transcriptional activity we utilized an A549 cell which was stably transfected with a plasmid containing 7× AP-1 DNA binding sites (pAP-1-Luc plasmid, Stratagene Co. La Jolla, Calif.) followed by the gene for luciferase. Cells were activated with 10 ng/ml of […] (PMA) plus or minus test molecules for 7 hours. After 7 hours a luciferase reagent was added to measure luciferase enzymatic activity in the cell. After a 10 minute incubation of luciferase reagent with cells, luminescence was measured in a TopCount luminescence counter. Repression of AP-1 activity was calculated as the percentage decrease in the signal induced by PMA alone. Test molecules were analyzed in the concentration range from 0.1 nM to 40 μM. EC50s were determined by using standard curve fitting methods such as Excel fit (Microsoft Co.).

The mark [1] stands for this setting: Homo sapiens, Cellular Transrepression Assay.
Where [2] appears, read: Homo sapiens, A549, Cellular Transrepression Assay.

Where two headings read alike, the source gives them in different places.

By EC50 is commonly meant the concentration needed to bring the measured effect to its halfway point. With `Cc1csc(NC(=O)C(C)(C)[C@H]2c3ccccc3Oc3cc(O)ccc32)n1` [Example 88], the Emax under setting [1] stood at 49.2%. Further, the concentration giving a half-maximal response (EC50) under setting [2] came to 128 nM.

Consider `CCC(C)NC(=O)Oc1ccc2c(c1)Oc1ccccc1C2C(C)(C)C(=O)Nc1nncs1` (stereo not drawn) [Example 383], for which, for the setting “Cellular Transrepression Assay”, the EC50 came to 46.3 nM and the “AP-1 Max % inh (Cellular Transrepression Assay)” value (“AP-1 Max % inh” below) worked out at 41.78%.

For the molecule `CC(C)(C(=O)Nc1ncns1)[C@H]1c2ccccc2Oc2nc(-c3ccc(C(=O)N4CCCC4)cc3)ccc21` [Example 455], the Emax under setting [1] worked out at 58.6%. Also, the EC50 under setting [2] worked out at 24.6 nM.

`CC(C)(C(=O)Nc1nncs1)C1c2ccccc2Oc2nc(-c3ccc(Oc4ccccc4)cc3)ccc21` (stereo not drawn) [Example 198]: for the setting “Cellular Transrepression Assay”, the EC50 is 22.2 nM and the “AP-1 Max % inh” value amounted to 34.38%.

Regarding `CC(=O)c1ccc(-c2ccc3c(n2)Oc2ccccc2[C@@H]3C(C)(C)C(=O)Nc2nncs2)s1` [Example 452], the Emax under setting [1] came to 53.4%. The molecule further returned an EC50 under setting [2] of 11.1 nM.

On to `CC(C)Oc1ccc(-c2ccc3c(n2)Oc2ccccc2C3C(C)(C)C(=O)Nc2nncs2)cc1` (stereo not drawn) [Example 209], for which, for the setting “Cellular Transrepression Assay”, the EC50 was 14.3 nM and the “AP-1 Max % inh” value is given as 50.21%.

With `CNC(=O)c1nnc(NC(=O)C(C)(C)[C@H]2c3ccccc3Oc3nc(-c4ccc(C(=O)N5CCCC5)c(F)c4)ccc32)s1` [Example 419], the Emax under setting [1] was 46.6%. This molecule gave an EC50 under setting [2] of 71.9 nM.

Take `CCc1nnc(NC(=O)C(C)(C)[C@H]2c3ccccc3Oc3nc(-c4ccc(C(=O)N(C)C)cc4)ccc32)s1` [Example 447]: the Emax under setting [1] was 53%. The molecule further had a concentration for a half-maximal effect (EC50) under setting [2] of 95.4 nM.

Regarding `CN(C)C(=O)c1ccc(-c2ccc3c(n2)Oc2c(F)cccc2C3C(C)(C)C(=O)Nc2nncs2)cc1` (racemic) [Example 164], under “Cellular Transrepression Assay”, the midpoint of the response, the EC50, lay at 5.58 nM and the “AP-1 Max % inh” value is 57.26%.

`CNC(=O)Oc1ccc2c(c1)Oc1ccccc1C2C(C)(C)C(=O)Nc1nncs1` (stereo not drawn) [Example 386]: the Emax under setting [1] worked out at 34.3%. In addition, the EC50 (Homo sapiens, A549, read-out: AP-1 EC50, nM (Cellular Transrepression Assay)) came out at 89 nM.

As to `CC(C)(C(=O)Nc1nncs1)[C@H]1c2ccccc2Oc2nc(-c3ccc(C(=O)N4CCS(=O)(=O)CC4)cc3)ccc21` [Example 310], under setting [1], the Emax was 52.9%. This molecule showed a 50% effective concentration (EC50) under setting [2] of 786 nM.

Regarding `Cc1csc(NC(=O)C(C)(C)C2c3ccccc3Oc3nc(-c4ccc(C(=O)N(C)C)cc4)ccc32)n1` (stereo not drawn) [Example 363], for the setting “Cellular Transrepression Assay”, the half-maximal effective concentration (EC50) turned out to be 247 nM and the “AP-1 Max % inh” value stood at 47.74%.

For `CC(C)(C(=O)Nc1nc(-c2ccc(F)c3ccccc23)cs1)C1c2ccccc2Oc2ncccc21` (stereo not drawn) [Example 63], under setting [1], the Emax turned out to be 75.8%.

Regarding `CC(C)(C(=O)Nc1nc(Cc2ccc(-c3ccncc3)cc2)cs1)C1c2ccccc2CCc2ccccc21` [Example 24], the Emax under setting [1] is 78.8%. Moreover, a half-maximal response under setting [2] (EC50) required 15.7 nM.

As for `CN(C)C(=O)c1ccc(-c2ccc3c(n2)Oc2ccccc2[C@@H]3C(C)(C)C(=O)Nc2nnc(C3CC3)s2)cc1` [Example 448], the Emax under setting [1] was 56.6%. This molecule also came in with an EC50 under setting [2] of 178 nM.

Turning to `CNC(=O)c1nnc(NC(=O)C(C)(C)[C@H]2c3ccccc3Oc3nc(-c4ccc(C(=O)N5CCOCC5)cc4)ccc32)s1` [Example 422], the Emax under setting [1] is 50.5%. The concentration for a half-maximal effect (EC50) under setting [2] was 51.5 nM.

As to `CC(C)(C(=O)Nc1nc(-c2ccc(F)c3ccccc23)cs1)C1c2ccccc2-c2ccccc21` [Example 21], the Emax under setting [1] was determined as 60.8%.

With `CCCCc1ccc(-c2ccc3c(n2)Oc2ccccc2C3C(C)(C)C(=O)Nc2nncs2)c(C)c1` (stereo not drawn) [Example 222], for the setting “Cellular Transrepression Assay”, the EC50 turned out to be 100 nM and the “AP-1 Max % inh” value amounted to 61.88%.

As for `CC(C)(C(=O)Nc1nncs1)[C@H]1c2ccccc2Oc2nc(-c3ccc(C(=O)N4CCCC4C#N)cc3)ccc21` (stereo partly drawn) [Example 316], the Emax under setting [1] amounted to 35.9%. Also, the midpoint of the response under setting [2], the EC50, lay at 60.9 nM.

For `CC(C)(C(=O)Nc1nncs1)C1c2ccccc2Oc2nc(N3CCCCC3)ccc21` (stereo not drawn) [Example 132], the Emax under setting [1] was determined as 50.1%. In addition, the EC50 under setting [2] is 96 nM.

As for `O=C(CC1c2ccccc2Oc2ccccc21)Nc1nc(-c2cccc3ccccc23)cs1` [Example 4], the Emax under setting [1] was 56.5%.

Consider `COc1ccc2c(c1)Oc1ccccc1C2C(C)(C)C(=O)Nc1nc(-c2ccc(C)c3ccccc23)cs1` (stereo not drawn) [Example 46], for which, under setting [1], the Emax was determined as 67.6%. Moreover, the half-maximal effective concentration (EC50) under setting [2] stood at 90.2 nM.

As to `CC(C)Oc1cnc(-c2ccc3c(c2)Oc2ccccc2[C@@H]3C(C)(C)C(=O)Nc2nncs2)nc1` [Example 107], the Emax under setting [1] came to 22.8%. In addition, the midpoint of the response under setting [2], the EC50, lay at 833 nM.

As to `Cc1cnc(NC(=O)C(C)(C)[C@H]2c3ccccc3Oc3cc(O)ccc32)s1` [Example 87], the Emax under setting [1] is 46%. Moreover, under setting [2], it took 91.1 nM to reach a half-maximal effect (EC50).

In the case of `CN(C)C(=O)c1nnc(NC(=O)C(C)(C)[C@H]2c3ccccc3Oc3nc(-c4ccc(C(=O)N5CCCC5)c(F)c4)ccc32)s1` [Example 420], the Emax under setting [1] came out at 42.1%. Also, under setting [2], the concentration for a half-maximal effect (EC50) amounted to 41.9 nM.

As to `CC(C)(C(=O)Nc1nncs1)[C@H]1c2ccccc2Oc2nc(-c3ccc(C(=O)N4CC(O)C4)cc3)ccc21` [Example 315], the Emax under setting [1] came to 40.9%. The molecule also had a half-maximal effective concentration (EC50) under setting [2] of 750 nM.

As to `CC(C)(C(=O)Nc1nncs1)C1c2ccccc2Oc2cc(OC(=O)NCc3ccc(F)cc3)ccc21` (stereo not drawn) [Example 377], where the note is “Cellular Transrepression Assay”, the EC50 came to 32.7 nM and the “AP-1 Max % inh” value is reported as 49.10%.

For `CN(C)C(=O)c1ccc(-c2ccc3c(n2)Oc2ccccc2C3C2(C(=O)Nc3ncns3)CCCC2)cc1` (stereo not drawn) [Example 485], the Emax under setting [1] was determined as 38.9%. For the same molecule, the concentration for a half-maximal effect (EC50) under setting [2] was 42.4 nM.

In the case of `CC(C)(C(=O)Nc1nncs1)[C@H]1c2ccccc2Oc2nc(-c3ccc(C(=O)N4CCC(F)(F)C4)c(F)c3)ccc21` [Example 335], the Emax under setting [1] turned out to be 56%. For the same molecule, the EC50 under setting [2] turned out to be 37.9 nM.

As to `COc1ccc(Cc2csc(NC(=O)C(C)(C)[C@H]3c4ccccc4Oc4cc(OC)ccc43)n2)cc1` [Example 57], under setting [1], the Emax stood at 74.8%. The same molecule had an EC50 under setting [2] of 11.5 nM.

Take `CC(C)(C(=O)Nc1nncs1)[C@H]1c2ccccc2Oc2nc(-c3ccc(C(=O)N4CCCCC4)c(Cl)c3)ccc21` [Example 264]: for the setting “Cellular Transrepression Assay”, the EC50 was determined as 115 nM and the “AP-1 Max % inh” value is recorded as 33.74%.

`COC(=O)Cc1ccc(-c2ccc3c(n2)Oc2ccccc2[C@@H]3C(C)(C)C(=O)Nc2nncs2)cc1` [Example 238]: the Emax under setting [1] amounted to 62.3%. Under setting [2], this molecule gave an EC50 of 601 nM.

Consider `O=C(CC1c2ccccc2Oc2ccccc21)Nc1nc(-c2ccc(F)c3ccccc23)cs1` [Example 2], for which the Emax under setting [1] was 42.7%.

With `CCCN(C)C(=O)c1ccc(-c2ccc3c(n2)Oc2ccccc2[C@@H]3C(C)(C)C(=O)Nc2nncs2)cc1F` [Example 343], under “Cellular Transrepression Assay”, the response was half-maximal at 18.4 nM (EC50) and the “AP-1 Max % inh” value is 29.68%.

Turning to `CC(C)(C(=O)Nc1nncs1)C1c2ccccc2Oc2cc(/C(N)=N\O)ccc21` (stereo not drawn) [Example 115], under setting [1], the Emax was determined as 31.3%. This molecule also registered an EC50 under setting [2] of 3.9 nM.

Regarding `Cc1nsc(NC(=O)C(C)(C)[C@H]2c3ccccc3Oc3nc(-c4ccc(C(=O)N5CCOCC5)cc4)ccc32)n1` [Example 478], under setting [1], the Emax was 41.8%. For the same molecule, the EC50 under setting [2] came to 16 nM.

For the molecule `COc1ccc(NC(=O)c2cccc(-c3csc(NC(=O)C(C)(C)C4c5ccccc5Oc5ccccc54)n3)c2)cc1Cl` [Example 29], the Emax under setting [1] was found to be 66.4%. In addition, under setting [2], the EC50 came to 139 nM.

In the case of `CCCCNC(=O)Oc1ccc2c(c1)Oc1ccccc1[C@@H]2C(C)(C)C(=O)Nc1nncs1` [Example 370], the Emax under setting [1] amounted to 57.6%. This molecule registered a half-maximal effective concentration (EC50) under setting [2] of 34.2 nM.

Regarding `CC(C)(C(=O)Nc1nc(Cc2ccc(-c3ccncc3)cc2)cs1)C1c2ccccc2Oc2ccccc21` [Example 34], the Emax under setting [1] is 71.8%. The same molecule displayed an EC50 under setting [2] of 3.52 nM.

As for `CCN(CC)C(=O)c1ccc(-c2ccc3c(n2)Oc2ccccc2[C@@H]3C(C)(C)C(=O)Nc2nncs2)cc1Cl` [Example 263], under setting [1], the Emax stood at 58%. This molecule also yielded a 50% effective concentration (EC50) under setting [2] of 15.4 nM.

Regarding `Cc1noc(C)c1-c1ccc(Cc2csc(NC(=O)C(C)(C)C3c4ccccc4Oc4ccccc43)n2)cc1` [Example 43], the Emax under setting [1] was 71.9%. Under setting [2], this molecule showed a 50% effective concentration (EC50) of 13.4 nM.

For the molecule `O=C(CC1c2ccccc2Sc2ccccc21)Nc1nc(-c2ccc(F)c3ccccc23)cs1` [Example 26], the Emax under setting [1] is 26.9%.

On to `CN(C)C(=O)c1ccc(-c2ccc3c(n2)Oc2ccccc2[C@@H]3C(C)(C)C(=O)Nc2nncs2)cc1F` [Example 250], for which the Emax under setting [1] is 48.4%. Under setting [2], this molecule registered an EC50 of 17.8 nM.

In the case of `CC(C)Oc1ccc(-c2ccc3c(n2)Oc2ccccc2[C@@H]3C(C)(C)C(=O)Nc2nccs2)cc1F` [Example 246], the Emax under setting [1] is 81.8%. Under setting [2], this molecule showed a concentration for a half-maximal effect (EC50) of 325 nM.

Consider `COc1ccc(CNC(=O)Oc2ccc3c(c2)Oc2ccccc2C3C(C)(C)C(=O)Nc2nncs2)cc1` (stereo not drawn) [Example 391], for which, for the setting “Cellular Transrepression Assay”, the EC50 was 52 nM and the “AP-1 Max % inh” value stood at 44.08%.

Turning to `Cc1ccc(-c2csc(NC(=O)C(C)(C)C3c4ccccc4S(=O)(=O)c4ccccc43)n2)c2ccccc12` [Example 13], the Emax under setting [1] came out at 60.3%. Under setting [2], this molecule displayed an EC50 of 566 nM.

For `CC(C)(C(=O)Nc1ncns1)[C@H]1c2ccccc2Oc2nc(-c3ccc(C(=O)N4CCOCC4)cc3)ccc21` [Example 457], the Emax under setting [1] stood at 51.9%. This molecule returned a 50% effective concentration (EC50) under setting [2] of 16.6 nM.

Turning to `CC(C)(C(=O)Nc1nncs1)[C@H]1c2ccccc2Oc2nc(NC(=O)NCCN3CCCC3)ccc21` [Example 401], the Emax under setting [1] amounted to 35.1%. Under setting [2], this molecule yielded an EC50 of 778 nM.

As to `COc1ccc2c(c1)Oc1ccccc1C2C(C)(C)C(=O)Nc1nc(-c2cccc3ccccc23)cs1` (stereo not drawn) [Example 52], under setting [1], the Emax worked out at 70.8%. Besides, the EC50 under setting [2] amounted to 213 nM.
